# Assay results as given in paper PMC8480901 (PLoS ONE, 2021).
# Several values for one entry are separate records, joined by “and”; a condition that tells them apart may be missing. Equal values may be shown once.
# System: human PBMCs
# Assay: LPS-induced cytokine and chemokine levels in human PBMC supernatant (Luminex, ELISA)
# Assay type: cell-based
# Settings: for TNF-α % reduction / TNF-α [pg/mL], Mean / TNF-α [pg/mL], individual value / GM-CSF % reduction / GM-CSF [pg/mL], Mean / GM-CSF [pg/mL], individual value / IL-1β % reduction / IL-1β [pg/mL], Mean / IL-1β [pg/mL], individual value / IL-6 % reduction / IL-6 [pg/mL], Mean / IL-6 [pg/mL], individual value / IL-8 % reduction / IL-8 [pg/mL], Mean / IL-8 [pg/mL], individual value: LPS-stimulated human PBMC supernatant
structure (smiles),measurement,setting,value
C=C[C@]1(C)C[C@@H](OC(=O)CS[C@@H]2CC[C@@H](N)C[C@H]2O)[C@]2(C)[C@H](C)CC[C@]3(CCC(=O)[C@H]32)[C@@H](C)[C@@H]1O [Lefamulin],TNF-α % reduction,0.03 µM,19%
same,"TNF-α [pg/mL], Mean",0.03 µM,7210 pg/mL
same,"TNF-α [pg/mL], individual value",0.03 µM,7885 pg/mL and 6534 pg/mL
same,GM-CSF % reduction,0.1 µM,-3%
same,"GM-CSF [pg/mL], Mean",0.1 µM,677 pg/mL
same,"GM-CSF [pg/mL], individual value",0.1 µM,676 pg/mL and 678 pg/mL
same,IL-1β % reduction,0.1 µM,0.28%
same,"IL-1β [pg/mL], Mean",0.1 µM,12749 pg/mL
same,"IL-1β [pg/mL], individual value",0.1 µM,11912 pg/mL and 13586 pg/mL
same,IL-6 % reduction,0.1 µM,4%
same,"IL-6 [pg/mL], Mean",0.1 µM,33560 pg/mL
same,"IL-6 [pg/mL], individual value",0.1 µM,32908 pg/mL and 34212 pg/mL
same,IL-8 % reduction,0.1 µM,6%
same,"IL-8 [pg/mL], Mean",0.1 µM,2899 pg/mL
same,"IL-8 [pg/mL], individual value",0.1 µM,2852 pg/mL and 2946 pg/mL
same,TNF-α % reduction,0.1 µM,9%
same,"TNF-α [pg/mL], Mean",0.1 µM,8157 pg/mL
same,"TNF-α [pg/mL], individual value",0.1 µM,7880 pg/mL and 8433 pg/mL
same,GM-CSF % reduction,0.3 µM,-3%
same,"GM-CSF [pg/mL], Mean",0.3 µM,677 pg/mL
same,"GM-CSF [pg/mL], individual value",0.3 µM,692 pg/mL and 662 pg/mL
same,IL-1β % reduction,0.3 µM,-12%
same,"IL-1β [pg/mL], Mean",0.3 µM,14379 pg/mL
same,"IL-1β [pg/mL], individual value",0.3 µM,14814 pg/mL and 13945 pg/mL
same,IL-6 % reduction,0.3 µM,-0.0984%
same,"IL-6 [pg/mL], Mean",0.3 µM,34943 pg/mL
same,"IL-6 [pg/mL], individual value",0.3 µM,35534 pg/mL and 34352 pg/mL
same,IL-8 % reduction,0.3 µM,-13%
same,"IL-8 [pg/mL], Mean",0.3 µM,3213 pg/mL
same,"IL-8 [pg/mL], individual value",0.3 µM,3328 pg/mL and 3097 pg/mL
same,TNF-α % reduction,0.3 µM,-1.74%
same,"TNF-α [pg/mL], Mean",0.3 µM,9093 pg/mL
same,"TNF-α [pg/mL], individual value",0.3 µM,9382 pg/mL and 8804 pg/mL
same,GM-CSF % reduction,1 µM,-5.35%
same,"GM-CSF [pg/mL], Mean",1 µM,693 pg/mL
same,"GM-CSF [pg/mL], individual value",1 µM,646 pg/mL and 740 pg/mL
same,IL-1β % reduction,1 µM,-4%
same,"IL-1β [pg/mL], Mean",1 µM,13318 pg/mL
same,"IL-1β [pg/mL], individual value",1 µM,12337 pg/mL and 14300 pg/mL
same,IL-6 % reduction,1 µM,-4%
same,"IL-6 [pg/mL], Mean",1 µM,36293 pg/mL
same,"IL-6 [pg/mL], individual value",1 µM,36311 pg/mL and 36275 pg/mL
same,IL-8 % reduction,1 µM,-10%
same,"IL-8 [pg/mL], Mean",1 µM,3154 pg/mL
same,"IL-8 [pg/mL], individual value",1 µM,3230 pg/mL and 3077 pg/mL
same,TNF-α % reduction,1 µM,-5.41%
same,"TNF-α [pg/mL], Mean",1 µM,9420 pg/mL
same,"TNF-α [pg/mL], individual value",1 µM,9688 pg/mL and 9151 pg/mL
same,GM-CSF % reduction,3 µM,-8%
same,"GM-CSF [pg/mL], Mean",3 µM,711 pg/mL
same,"GM-CSF [pg/mL], individual value",3 µM,719 pg/mL and 703 pg/mL
same,IL-1β % reduction,3 µM,4%
same,"IL-1β [pg/mL], Mean",3 µM,12272 pg/mL
same,"IL-1β [pg/mL], individual value",3 µM,10817 pg/mL and 13728 pg/mL
same,IL-6 % reduction,3 µM,-8.52%
same,"IL-6 [pg/mL], Mean",3 µM,37884 pg/mL
same,"IL-6 [pg/mL], individual value",3 µM,36958 pg/mL and 38809 pg/mL
same,IL-8 % reduction,3 µM,-3%
same,"IL-8 [pg/mL], Mean",3 µM,3044 pg/mL
same,"IL-8 [pg/mL], individual value",3 µM,3098 pg/mL and 2991 pg/mL
same,TNF-α % reduction,3 µM,-12%
same,"TNF-α [pg/mL], Mean",3 µM,9993 pg/mL
same,"TNF-α [pg/mL], individual value",3 µM,8826 pg/mL and 11161 pg/mL
same,GM-CSF % reduction,10 µM,-9%
same,"GM-CSF [pg/mL], Mean",10 µM,717 pg/mL
same,"GM-CSF [pg/mL], individual value",10 µM,744 pg/mL and 689 pg/mL
same,IL-1β % reduction,10 µM,-2.68%
same,"IL-1β [pg/mL], Mean",10 µM,13127 pg/mL
same,"IL-1β [pg/mL], individual value",10 µM,12893 pg/mL and 13362 pg/mL
same,IL-6 % reduction,10 µM,-16%
same,"IL-6 [pg/mL], Mean",10 µM,40496 pg/mL
same,"IL-6 [pg/mL], individual value",10 µM,38929 pg/mL and 42063 pg/mL
same,IL-8 % reduction,10 µM,13%
same,"IL-8 [pg/mL], Mean",10 µM,2781 pg/mL
same,"IL-8 [pg/mL], individual value",10 µM,2867 pg/mL and 2696 pg/mL
same,TNF-α % reduction,10 µM,-3.32%
same,"TNF-α [pg/mL], Mean",10 µM,9234 pg/mL
same,"TNF-α [pg/mL], individual value",10 µM,8438 pg/mL and 10030 pg/mL
same,GM-CSF % reduction,30 µM,-38%
same,"GM-CSF [pg/mL], Mean",30 µM,905 pg/mL
same,"GM-CSF [pg/mL], individual value",30 µM,938 pg/mL and 871 pg/mL
same,IL-1β % reduction,30 µM,-19%
same,"IL-1β [pg/mL], Mean",30 µM,15264 pg/mL
same,"IL-1β [pg/mL], individual value",30 µM,15102 pg/mL and 15425 pg/mL
same,IL-6 % reduction,30 µM,-24%
same,"IL-6 [pg/mL], Mean",30 µM,43122 pg/mL
same,"IL-6 [pg/mL], individual value",30 µM,44285 pg/mL and 41958 pg/mL
same,IL-8 % reduction,30 µM,27%
same,"IL-8 [pg/mL], Mean",30 µM,2563 pg/mL
same,"IL-8 [pg/mL], individual value",30 µM,2485 pg/mL and 2640 pg/mL
same,TNF-α % reduction,30 µM,33%
same,"TNF-α [pg/mL], Mean",30 µM,6044 pg/mL
same,"TNF-α [pg/mL], individual value",30 µM,6330 pg/mL and 5758 pg/mL
same,GM-CSF % reduction,100 µM,-97%
same,"GM-CSF [pg/mL], Mean",100 µM,1293 pg/mL
same,"GM-CSF [pg/mL], individual value",100 µM,1274 pg/mL and 1313 pg/mL
same,IL-1β % reduction,100 µM,-71%
same,"IL-1β [pg/mL], Mean",100 µM,21910 pg/mL
same,"IL-1β [pg/mL], individual value",100 µM,21940 pg/mL and 21880 pg/mL
same,IL-6 % reduction,100 µM,23%
same,"IL-6 [pg/mL], Mean",100 µM,26707 pg/mL
same,"IL-6 [pg/mL], individual value",100 µM,26414 pg/mL and 27001 pg/mL
same,IL-8 % reduction,100 µM,11%
same,"IL-8 [pg/mL], Mean",100 µM,2809 pg/mL
same,"IL-8 [pg/mL], individual value",100 µM,2812 pg/mL and 2806 pg/mL
same,TNF-α % reduction,100 µM,74%
same,"TNF-α [pg/mL], Mean",100 µM,2354 pg/mL
same,"TNF-α [pg/mL], individual value",100 µM,2393 pg/mL and 2315 pg/mL
same,"levels of the measured LPS-induced cytokines, chemokines, or MMP-9 in supernatants","human PBMCs, concentrations tested (100 μM not shown)",little to no reduction
